Measurements published in patent publication US20220096650A1 (Glaxosmithkline Intellectual Property Development Limited, priority 2019, published 2022).

System: Dendritic cells
Test: Co-culture of immature dendritic cells with BCMA ADC treated NCI-H929 cells, maturation markers by flow cytometry
Assay type: cell-based, human
From the text: The process of immunogenic cell death can induce the production of danger molecules that lead to the activation of dendritic cells (see FIG. 1A-ICD is a special type of apoptosis often associated with the cellular release of ATP and HMGB1, and exposure of CRT at the cellular membrane. ICD induces an immune response through engagement of the antigen presentation process by dendritic cells (DCs)). […] Anti-BCMA-MMAF induced ATP release, HMGB1 release and CRT exposure only in NCI-H929, a BCMA positive MM cell line). To investigate the effect of NCI-H929 cell killing by BCMA ADC on the activation of dendritic cells, co-culture experiments were carried out with BCMA ADC treated NCI-H929 cells and immature dendritic cells (iDCs) differentiated from human monocytes in vitro with GM-CSF/IL-4 treatment. A number of dendritic cell maturation markers as well as IL-10 and IL-12p70, two major cytokines secreted by dendritic cells upon activation, were monitored in this process to assess the effect of BCMA ADC induced cell death on dendritic cell activation. Fresh, whole Human blood was obtained from three healthy donors from the Upper Providence Blood Donation Unit with syringes coated in liquid sodium heparin ([…] 10 IU/mL final concentration). Monocytes were isolated from fresh, whole human blood using the RosetteSep Monocyte Enrichment kit (Cat. #15068) and were assessed for expression of cell surface CD14 (BD Bioscience Cat. #562698) using flow cytometry. […] All cells were counted at the initiation of the co-culture and diluted with X-Vivo-15 media to a concentration of 7.5×10^5 cells/mL. […] Data for the secreted IL-10 and IL-12p70 from supernatants in the co-culture assays w analyzed in MSD Discovery Workbench v4.0.12. […] Marker expression was measured in (a) untreated (no BCMA ADC) Dendritic cells alone and (b-f) Dendritic cells that were co-cultured with (b) untreated (no BCMA ADC), (c) IgG Control (10 μg/mL), (d) 0.1, (e) 1 and (f) 10 μg/mL BCMA ADC treated (48 hours) NCI-H929 cells. […]

[1] = three healthy donors, 24 hour co-culture, 0.1, 1, 10 μg/mL BCMA ADC

## GSK2857916
24 hour co-culture 1:1 with NCI-H929 cells treated 48 hours
  effect of killing of NCI-H929 cells on dendritic cells: stimulatory effect on dendritic cells
[1]
  CD40 cell surface expression on CD11c+ Dendritic cells: increased
  CD83 cell surface expression on HLA-DR+ Dendritic cells: increased
